Active and inactive are the calls of the source.
What was measured:
[1] = molecular target: SUMO E1/E2 (Homo sapiens, UniProt P63279+Q9UBE0+Q9UBT2); assay: SAR analysis of SUMOylation using HTRF in an in-Vitro dose response assay. [Related pubchem assays (depositor defined):AID2006, AID2011, AID2018, AID2069, AID2658]; type: functional
[2] = molecular target: T1, Nucleotide-binding oligomerization domain-containing protein 1 (Homo sapiens, UniProt Q9Y239); assay: SAR analysis of NF-kappaB dependent luciferase using DAP as an inducer - Set 2. [Related pubchem assays (depositor defined):AID1566, AID1575, AID1578, AID1579, AID1849, AID1852, AID2264]; type: functional
T1 sequence (Q9Y239 whole entry): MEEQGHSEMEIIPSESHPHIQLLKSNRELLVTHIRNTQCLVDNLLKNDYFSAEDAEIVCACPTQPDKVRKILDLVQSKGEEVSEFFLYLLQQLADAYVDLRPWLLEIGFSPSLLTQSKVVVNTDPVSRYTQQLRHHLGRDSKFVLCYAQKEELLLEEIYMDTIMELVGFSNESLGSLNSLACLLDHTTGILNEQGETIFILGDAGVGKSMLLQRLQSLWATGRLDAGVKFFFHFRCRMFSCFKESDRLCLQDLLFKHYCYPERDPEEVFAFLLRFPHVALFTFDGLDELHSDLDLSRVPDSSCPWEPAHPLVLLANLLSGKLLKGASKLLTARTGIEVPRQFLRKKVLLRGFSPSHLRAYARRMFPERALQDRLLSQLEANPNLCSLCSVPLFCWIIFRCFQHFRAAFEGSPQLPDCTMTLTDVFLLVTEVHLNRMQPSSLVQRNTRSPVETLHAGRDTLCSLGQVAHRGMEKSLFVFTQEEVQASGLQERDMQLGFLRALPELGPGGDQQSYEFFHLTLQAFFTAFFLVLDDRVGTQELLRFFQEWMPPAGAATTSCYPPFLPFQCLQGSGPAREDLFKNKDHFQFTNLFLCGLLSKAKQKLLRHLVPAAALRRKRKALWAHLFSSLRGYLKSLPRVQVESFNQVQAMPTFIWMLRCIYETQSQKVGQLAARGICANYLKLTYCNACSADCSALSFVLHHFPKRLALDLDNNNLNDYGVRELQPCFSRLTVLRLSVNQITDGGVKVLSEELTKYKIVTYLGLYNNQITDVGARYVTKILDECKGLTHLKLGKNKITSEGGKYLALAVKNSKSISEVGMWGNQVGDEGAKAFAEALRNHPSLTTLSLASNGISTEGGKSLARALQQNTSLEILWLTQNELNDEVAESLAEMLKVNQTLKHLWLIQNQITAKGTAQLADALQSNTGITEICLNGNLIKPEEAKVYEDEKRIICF

[3] = molecular target: T2, Interleukin-8 (Homo sapiens, UniProt P10145); assay: SAR analysis of Tumor necrosis factor alpha (TNF-alpha) induced IL-8 secretion in MCF-7/NOD1 cells - Set 2. [Related pubchem assays (depositor defined):AID1575, AID2250, AID2260]; type: functional, cell-based
T2 sequence (P10145 whole entry): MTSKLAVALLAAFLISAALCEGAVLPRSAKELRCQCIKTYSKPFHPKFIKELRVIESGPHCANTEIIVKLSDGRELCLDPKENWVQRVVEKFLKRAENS

[4] = molecular target: T2, Interleukin-8; assay: SAR analysis of GM-Tri-DAP induced IL-8 secretion in MCF-7/NOD1 cells - Set 2. [Related pubchem assays (depositor defined):AID1575, AID1578, AID2333]; type: functional, cell-based
[5] = molecular target: T3, Nucleotide-binding oligomerization domain-containing protein 2 (Homo sapiens, UniProt Q9HC29); assay: inhibition of NOD2 signaling – set 2, SAR follow-up (AID 2475); type: functional
T3 sequence (Q9HC29 whole entry, the tested form may be a part): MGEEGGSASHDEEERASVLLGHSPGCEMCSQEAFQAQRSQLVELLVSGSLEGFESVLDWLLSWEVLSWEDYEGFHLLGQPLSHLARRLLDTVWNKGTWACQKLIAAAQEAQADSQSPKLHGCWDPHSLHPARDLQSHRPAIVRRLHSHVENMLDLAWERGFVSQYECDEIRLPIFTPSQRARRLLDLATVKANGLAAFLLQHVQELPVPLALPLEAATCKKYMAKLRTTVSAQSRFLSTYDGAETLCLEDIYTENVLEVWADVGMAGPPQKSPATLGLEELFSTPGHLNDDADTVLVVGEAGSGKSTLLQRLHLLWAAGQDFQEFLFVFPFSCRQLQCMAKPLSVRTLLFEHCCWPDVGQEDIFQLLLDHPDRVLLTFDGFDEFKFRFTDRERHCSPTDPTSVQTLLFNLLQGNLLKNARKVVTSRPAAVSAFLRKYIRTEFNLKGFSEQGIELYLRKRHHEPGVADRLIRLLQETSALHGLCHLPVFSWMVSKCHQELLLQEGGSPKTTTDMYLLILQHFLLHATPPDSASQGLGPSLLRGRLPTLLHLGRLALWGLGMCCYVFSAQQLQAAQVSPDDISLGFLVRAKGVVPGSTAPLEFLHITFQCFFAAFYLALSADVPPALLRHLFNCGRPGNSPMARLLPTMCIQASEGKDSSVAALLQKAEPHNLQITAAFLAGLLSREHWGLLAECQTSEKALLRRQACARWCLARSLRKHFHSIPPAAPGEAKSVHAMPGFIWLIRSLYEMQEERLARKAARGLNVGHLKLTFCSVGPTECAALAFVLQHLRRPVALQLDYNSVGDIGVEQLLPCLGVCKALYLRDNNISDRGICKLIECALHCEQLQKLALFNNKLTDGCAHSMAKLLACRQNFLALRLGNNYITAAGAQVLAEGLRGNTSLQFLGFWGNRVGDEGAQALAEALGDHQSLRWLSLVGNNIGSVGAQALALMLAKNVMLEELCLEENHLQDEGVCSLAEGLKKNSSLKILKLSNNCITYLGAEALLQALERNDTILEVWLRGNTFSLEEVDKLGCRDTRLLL

[6] = test system: HEK293; assay: SAR analysis of compounds that are cytotoxic to HEK293 - Set 2. [Related pubchem assays (depositor defined):AID1575, AID1578, AID1849, AID2001, AID2333, AID2334, AID2335, AID2337, AID2800]; type: functional, cell-based; conditions: Homo sapiens
[7] = molecular target: T1, Nucleotide-binding oligomerization domain-containing protein 1; assay: SAR analysis of compounds that inhibit NOD1 - Set 2. [Related pubchem assays (depositor defined):AID1566, AID1575, AID1578, AID1849, AID1852, AID2333, AID2335, AID2798]; type: functional
[8] = molecular target: T1, Nucleotide-binding oligomerization domain-containing protein 1; assay: SAR analysis of compounds that inhibit NOD1 - Set 3. [Related pubchem assays (depositor defined):AID1566, AID1575, AID1578, AID1849, AID1852, AID2333, AID2335, AID2466]; type: functional
[9] = molecular target: Tumor necrosis factor (Homo sapiens, UniProt P01375); assay: analog potency on TNFa NF-kB signaling – cell-based, set 3, SAR follow-up (AID 2801); type: functional
Sequence of Tumor necrosis factor (P01375 whole entry): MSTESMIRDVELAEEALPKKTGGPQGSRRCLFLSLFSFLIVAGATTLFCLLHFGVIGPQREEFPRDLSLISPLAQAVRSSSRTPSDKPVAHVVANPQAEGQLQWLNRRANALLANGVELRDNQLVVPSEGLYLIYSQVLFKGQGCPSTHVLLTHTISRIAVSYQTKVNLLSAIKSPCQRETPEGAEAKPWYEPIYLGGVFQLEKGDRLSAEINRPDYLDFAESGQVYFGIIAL

[10] = test system: HEK293; assay: SAR analysis of compounds that are cytotoxic to HEK293 - Set 3. [Related pubchem assays (depositor defined):AID1575, AID1578, AID1848, AID1849, AID2001, AID2333, AID2334, AID2335, AID2337, AID2469]; type: functional, cell-based; conditions: Homo sapiens
[11] = molecular target: T3, Nucleotide-binding oligomerization domain-containing protein 2; assay: inhibition of MDP-driven NOD2 NF-kB reporter – cell-based, set 3, SAR follow-up (AID 2799); type: functional
[12] = reduction of Shn3 3'UTR-driven luciferase in osteoblasts – cell-based, Clone20 osteoblasts, firefly luciferase, cherry-picked, dose response (AID 624132); type: functional;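 further: firefly luciferase luminescence from reporter carrying the Shn3 3'UTR in osteoblasts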
[13] = loss of viability in HepG2 cells – cell-based, CellTiter-Glo, cherry-picked, cytotoxicity control for Shn3 inhibitor project, dose response (AID 624134); type: functional
[14] = non-specific 3'UTR reporter inhibition in Clone20-Shn3RL – cell-based, Renilla luciferase, cherry-picked, counter-screen for Shn3 inhibitor project, dose response (AID 624133); type: functional
[15] = molecular target: T4, G-protein coupled receptor 55 (Homo sapiens, UniProt Q9Y2T6); assay: blockers of GPR55 signalling, imaged – imaging, image-based, counter-screen for GPR35 antagonist project, SAR follow-up (AID 2397); type: functional
T4 sequence (Q9Y2T6 whole entry): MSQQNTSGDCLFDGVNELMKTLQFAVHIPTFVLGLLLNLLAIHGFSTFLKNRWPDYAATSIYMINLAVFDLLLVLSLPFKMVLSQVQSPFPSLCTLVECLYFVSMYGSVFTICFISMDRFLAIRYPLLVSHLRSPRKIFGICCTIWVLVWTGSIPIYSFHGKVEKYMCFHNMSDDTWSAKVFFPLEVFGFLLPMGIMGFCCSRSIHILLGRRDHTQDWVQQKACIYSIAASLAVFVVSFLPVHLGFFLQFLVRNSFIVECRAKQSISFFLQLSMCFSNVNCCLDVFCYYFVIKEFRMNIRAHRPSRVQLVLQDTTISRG

[16] = molecular target: T5, Tyrosine-protein phosphatase non-receptor type 7 (Homo sapiens, UniProt P35236); type: functional
T5 sequence (P35236 whole entry): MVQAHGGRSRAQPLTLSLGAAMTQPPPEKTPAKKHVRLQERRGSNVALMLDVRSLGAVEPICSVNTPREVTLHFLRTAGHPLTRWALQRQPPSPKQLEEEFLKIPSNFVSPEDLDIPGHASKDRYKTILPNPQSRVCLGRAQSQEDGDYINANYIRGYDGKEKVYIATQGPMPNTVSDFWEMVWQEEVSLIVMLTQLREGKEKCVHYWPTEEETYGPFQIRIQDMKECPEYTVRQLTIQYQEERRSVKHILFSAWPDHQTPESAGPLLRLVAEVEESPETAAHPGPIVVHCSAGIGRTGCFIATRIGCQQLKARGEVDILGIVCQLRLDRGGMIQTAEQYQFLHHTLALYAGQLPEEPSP

[17] = molecular target: T6, Voltage-gated N-type calcium channel alpha-1B subunit/Amyloid beta A4 precursor protein-binding family A member 1 (Homo sapiens, UniProt Q00975+Q02410); type: protein assay
T6 sequence (Q00975 whole entry): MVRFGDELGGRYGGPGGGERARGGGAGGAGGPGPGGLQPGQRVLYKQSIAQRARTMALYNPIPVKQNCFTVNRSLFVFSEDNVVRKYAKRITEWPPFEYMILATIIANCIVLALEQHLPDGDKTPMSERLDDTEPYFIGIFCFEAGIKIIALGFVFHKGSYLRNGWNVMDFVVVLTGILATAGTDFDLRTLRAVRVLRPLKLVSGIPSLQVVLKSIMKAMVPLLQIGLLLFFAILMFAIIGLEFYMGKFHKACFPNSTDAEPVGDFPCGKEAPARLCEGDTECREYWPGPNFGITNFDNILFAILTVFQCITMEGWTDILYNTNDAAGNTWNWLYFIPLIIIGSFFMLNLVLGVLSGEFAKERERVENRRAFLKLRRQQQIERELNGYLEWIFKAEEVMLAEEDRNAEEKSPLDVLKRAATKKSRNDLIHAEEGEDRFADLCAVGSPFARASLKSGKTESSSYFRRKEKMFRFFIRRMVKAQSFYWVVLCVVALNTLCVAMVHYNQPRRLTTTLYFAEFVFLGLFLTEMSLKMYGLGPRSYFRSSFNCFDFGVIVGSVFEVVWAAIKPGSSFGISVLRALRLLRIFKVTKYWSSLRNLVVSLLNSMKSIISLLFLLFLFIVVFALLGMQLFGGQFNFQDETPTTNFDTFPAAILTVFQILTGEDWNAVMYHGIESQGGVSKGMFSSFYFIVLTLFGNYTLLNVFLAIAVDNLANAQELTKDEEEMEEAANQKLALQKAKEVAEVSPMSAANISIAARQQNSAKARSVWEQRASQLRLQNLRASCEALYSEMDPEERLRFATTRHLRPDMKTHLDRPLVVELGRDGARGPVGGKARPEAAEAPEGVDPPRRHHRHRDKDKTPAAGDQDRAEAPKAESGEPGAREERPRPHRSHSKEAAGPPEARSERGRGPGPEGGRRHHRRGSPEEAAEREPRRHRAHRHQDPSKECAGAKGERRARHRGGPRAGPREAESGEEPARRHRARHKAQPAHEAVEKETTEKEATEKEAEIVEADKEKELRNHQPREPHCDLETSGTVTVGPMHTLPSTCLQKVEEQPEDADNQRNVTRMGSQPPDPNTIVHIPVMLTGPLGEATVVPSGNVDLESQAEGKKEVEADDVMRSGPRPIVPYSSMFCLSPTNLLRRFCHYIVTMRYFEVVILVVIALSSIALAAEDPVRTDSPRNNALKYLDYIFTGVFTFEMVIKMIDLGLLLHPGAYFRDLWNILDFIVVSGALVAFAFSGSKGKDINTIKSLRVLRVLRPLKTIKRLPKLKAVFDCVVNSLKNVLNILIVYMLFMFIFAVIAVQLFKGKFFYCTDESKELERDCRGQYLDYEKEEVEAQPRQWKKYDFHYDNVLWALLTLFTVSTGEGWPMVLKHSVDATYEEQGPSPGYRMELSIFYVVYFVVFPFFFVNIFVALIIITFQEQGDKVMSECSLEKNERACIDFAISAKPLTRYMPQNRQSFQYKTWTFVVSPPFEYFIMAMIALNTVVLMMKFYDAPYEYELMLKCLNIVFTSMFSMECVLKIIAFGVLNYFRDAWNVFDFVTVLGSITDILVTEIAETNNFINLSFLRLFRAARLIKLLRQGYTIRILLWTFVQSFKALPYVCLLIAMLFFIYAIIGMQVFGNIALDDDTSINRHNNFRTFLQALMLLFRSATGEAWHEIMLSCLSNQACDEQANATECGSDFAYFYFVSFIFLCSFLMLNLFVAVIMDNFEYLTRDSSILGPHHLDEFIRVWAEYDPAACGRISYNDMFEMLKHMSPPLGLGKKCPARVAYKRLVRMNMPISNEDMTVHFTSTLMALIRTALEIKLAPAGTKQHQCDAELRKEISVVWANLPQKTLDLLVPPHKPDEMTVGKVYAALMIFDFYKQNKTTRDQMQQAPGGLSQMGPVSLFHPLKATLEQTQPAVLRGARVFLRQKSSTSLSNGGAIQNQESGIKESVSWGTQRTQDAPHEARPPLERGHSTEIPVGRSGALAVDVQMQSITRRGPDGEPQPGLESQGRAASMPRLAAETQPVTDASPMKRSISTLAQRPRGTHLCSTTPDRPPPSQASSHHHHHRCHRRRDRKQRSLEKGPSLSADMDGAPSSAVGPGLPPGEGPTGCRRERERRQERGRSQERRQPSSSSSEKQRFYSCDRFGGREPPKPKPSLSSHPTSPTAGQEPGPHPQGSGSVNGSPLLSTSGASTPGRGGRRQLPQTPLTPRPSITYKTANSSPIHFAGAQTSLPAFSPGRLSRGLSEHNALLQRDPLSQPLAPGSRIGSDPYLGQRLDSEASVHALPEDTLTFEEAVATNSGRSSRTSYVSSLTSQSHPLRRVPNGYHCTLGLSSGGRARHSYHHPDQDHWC
T6 sequence (Q02410 whole entry): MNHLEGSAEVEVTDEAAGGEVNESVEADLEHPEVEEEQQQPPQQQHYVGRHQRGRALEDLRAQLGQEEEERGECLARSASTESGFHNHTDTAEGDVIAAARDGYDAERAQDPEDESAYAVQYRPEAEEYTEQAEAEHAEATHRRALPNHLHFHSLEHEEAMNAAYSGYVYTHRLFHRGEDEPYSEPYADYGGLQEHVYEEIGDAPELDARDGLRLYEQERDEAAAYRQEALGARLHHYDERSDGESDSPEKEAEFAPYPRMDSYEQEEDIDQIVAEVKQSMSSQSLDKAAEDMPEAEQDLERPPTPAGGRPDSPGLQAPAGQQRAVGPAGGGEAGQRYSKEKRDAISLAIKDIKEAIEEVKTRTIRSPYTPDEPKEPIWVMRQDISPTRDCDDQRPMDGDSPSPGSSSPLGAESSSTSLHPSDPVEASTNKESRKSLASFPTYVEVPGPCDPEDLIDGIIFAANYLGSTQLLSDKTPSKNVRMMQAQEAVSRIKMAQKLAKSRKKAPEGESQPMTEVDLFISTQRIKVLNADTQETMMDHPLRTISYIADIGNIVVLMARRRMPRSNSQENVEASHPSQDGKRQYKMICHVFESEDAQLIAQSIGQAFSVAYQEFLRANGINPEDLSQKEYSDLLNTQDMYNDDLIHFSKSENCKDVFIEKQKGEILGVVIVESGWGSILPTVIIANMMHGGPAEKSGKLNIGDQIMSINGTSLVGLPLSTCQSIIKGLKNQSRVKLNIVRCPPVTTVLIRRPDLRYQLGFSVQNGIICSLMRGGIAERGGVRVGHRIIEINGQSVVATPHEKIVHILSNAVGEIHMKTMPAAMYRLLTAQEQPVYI

[18] = molecular target: T6, Voltage-gated N-type calcium channel alpha-1B subunit/Amyloid beta A4 precursor protein-binding family A member 1; type: protein assay; remark: listed apart in the source
[19] = molecular target: T7, Tyrosine-protein phosphatase non-receptor type 22 (Homo sapiens, UniProt Q9Y2R2); type: functional
T7 sequence (Q9Y2R2 whole entry): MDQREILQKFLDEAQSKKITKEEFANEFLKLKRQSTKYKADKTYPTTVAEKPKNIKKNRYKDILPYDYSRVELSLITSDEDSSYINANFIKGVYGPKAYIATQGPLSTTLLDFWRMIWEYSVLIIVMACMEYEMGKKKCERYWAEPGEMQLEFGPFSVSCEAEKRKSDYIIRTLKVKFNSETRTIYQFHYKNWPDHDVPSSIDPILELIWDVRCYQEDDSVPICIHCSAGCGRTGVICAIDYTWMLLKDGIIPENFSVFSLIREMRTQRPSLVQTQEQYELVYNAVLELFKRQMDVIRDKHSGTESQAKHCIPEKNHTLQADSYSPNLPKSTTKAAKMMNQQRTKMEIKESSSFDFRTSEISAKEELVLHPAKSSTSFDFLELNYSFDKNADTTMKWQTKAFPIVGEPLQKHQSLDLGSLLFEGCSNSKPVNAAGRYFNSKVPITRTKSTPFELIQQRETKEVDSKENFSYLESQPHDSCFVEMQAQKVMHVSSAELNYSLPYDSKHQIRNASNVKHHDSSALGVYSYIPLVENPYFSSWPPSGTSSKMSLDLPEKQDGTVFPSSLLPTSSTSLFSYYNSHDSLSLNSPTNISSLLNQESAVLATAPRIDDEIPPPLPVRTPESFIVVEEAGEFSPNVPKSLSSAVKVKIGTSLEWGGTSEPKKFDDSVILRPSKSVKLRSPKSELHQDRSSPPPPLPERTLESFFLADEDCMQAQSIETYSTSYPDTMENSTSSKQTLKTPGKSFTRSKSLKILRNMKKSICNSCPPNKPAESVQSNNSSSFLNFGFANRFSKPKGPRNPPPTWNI

[20] = molecular target: T7, Tyrosine-protein phosphatase non-receptor type 22; type: functional; remark: listed apart in the source
[21] = molecular target: DNA dC->dU-editing enzyme APOBEC-3G (Homo sapiens, UniProt Q9HC16); assay: Dose Response confirmation of small molecule APOBEC3G DNA Deaminase Inhibitors via a fluorescence-based single-stranded DNA deaminase assay. [Related pubchem assays (depositor defined):AID493012, AID493028]; type: functional
[22] = molecular target: Sphingosine 1-phosphate receptor 5 (Homo sapiens, UniProt Q9H228); assay: Late stage counterscreen assay for S1P4 antagonists: Fluorescence dose response cell-based screening assay for antagonists of the Sphingosine 1-Phosphate Receptor 5 (S1P5). [Related pubchem assays (depositor defined):AID1510, AID1524, AID1692, AID1853, AID2332, AID489009, AID489017]; type: functional
[23] = molecular target: Sphingosine 1-phosphate receptor 3 (Homo sapiens, UniProt Q99500); assay: Late stage counterscreen assay for S1P4 antagonists: Fluorescence dose response cell-based screening assay for antagonists of the Sphingosine 1-Phosphate Receptor 3 (S1P3). [Related pubchem assays (depositor defined):AID1510, AID1524, AID1692, AID1853, AID2332, AID489009, AID489017]; type: functional
[24] = molecular target: Sphingosine 1-phosphate receptor 1 (Homo sapiens, UniProt P21453); assay: Late stage counterscreen assay for S1P4 antagonists: Fluorescence dose response cell-based screening assay for antagonists of the Sphingosine 1-Phosphate Receptor 1 (S1P1). [Related pubchem assays (depositor defined):AID1510, AID1524, AID1692, AID1853, AID2332, AID489009, AID489017]; type: functional
[25] = molecular target: Sphingosine 1-phosphate receptor 2 (Homo sapiens, UniProt O95136); assay: Late stage counterscreen assay for S1P4 antagonists: Fluorescence dose response cell-based screening assay for antagonists of the Sphingosine 1-Phosphate Receptor 2 (S1P2). [Related pubchem assays (depositor defined):AID1510, AID1524, AID1692, AID1853, AID2332, AID489009, AID489017]; type: functional
[26] = molecular target: T8, G-protein coupled receptor 35 (Homo sapiens, UniProt Q9HC97); assay: SAR analysis of Agonists of the GPR35 Receptor using an Image-Based Assay - Set 4. [Related pubchem assays (depositor defined):AID2013, AID2026]; type: functional
T8 sequence (Q9HC97 whole entry): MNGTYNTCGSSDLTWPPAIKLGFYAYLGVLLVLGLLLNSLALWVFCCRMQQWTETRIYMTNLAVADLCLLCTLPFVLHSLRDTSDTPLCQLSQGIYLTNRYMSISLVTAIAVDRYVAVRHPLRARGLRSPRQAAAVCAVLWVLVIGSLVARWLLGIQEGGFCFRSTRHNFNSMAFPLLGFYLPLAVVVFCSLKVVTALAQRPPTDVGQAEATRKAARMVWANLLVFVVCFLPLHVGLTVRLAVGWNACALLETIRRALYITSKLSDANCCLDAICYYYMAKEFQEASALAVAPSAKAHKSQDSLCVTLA

[27] = molecular target: T9, Cannabinoid receptor 1 (Homo sapiens, UniProt P21554); assay: SAR analysis of agonists of the Cannabinoid Receptor 1 using an Image-Based Assay - Set 4. [Related pubchem assays (depositor defined):AID2013, AID2026]; type: functional
[28] = molecular target: T8, G-protein coupled receptor 35; assay: SAR analysis of Antagonists of the GPR35 Receptor using an Image-Based Assay - Set 6. [Related pubchem assays (depositor defined):AID2013, AID2026]; type: functional
[29] = molecular target: T9, Cannabinoid receptor 1; assay: SAR analysis of antagonists of the Cannabinoid Receptor 1 using an Image-Based Assay - Set 4. [Related pubchem assays (depositor defined):AID2013, AID2026]; type: functional
[30] = molecular target: T4, G-protein coupled receptor 55; assay: SAR Analysis of Selective Antagonists of GPR55 using an Image-Based Assay - Set 4. [Related pubchem assays (depositor defined):AID2013, AID2026]; type: functional
[31] = molecular target: T10, Cannabinoid receptor 2 (Homo sapiens, UniProt P34972); assay: SAR analysis of antagonists of the Cannabinoid Receptor 2 using an Image-Based Assay - Set 3. [Related pubchem assays (depositor defined):AID2013, AID2026]; type: functional
[32] = molecular target: T10, Cannabinoid receptor 2; assay: SAR analysis of agonists of the Cannabinoid Receptor 2 using an Image-Based Assay - Set 3. [Related pubchem assays (depositor defined):AID2013, AID2026]; type: functional

O=C1c2oc3ccccc3c(=O)c2C(c2ccc(O)cc2)N1c1nccs1 (configuration not stated)
active: IC50 [1] 28.7 µM

C/C(Cl)=C\Cn1c(NCCc2ccccc2)nc2c1c(=O)n(C)c(=O)n2C
inactive: IC50 [2] > 25 µM | IC50 [3] > 25 µM | IC50 [4] > 25 µM | IC50 [6] > 20 µM | IC50 [10] > 20 µM
active: IC50 [5] 2.5 µM | IC50 [7] 2.61 µM | IC50 [8] 4.13 µM | IC50 [9] 5.66 µM | IC50 [11] 3.05 µM | AC50 [12] 0.283 µM | AC50 [13] 59.4 µM | AC50 [14] 0.493 µM

O=C(Nc1ccc2nc(SCc3ccc(Cl)c(Cl)c3)sc2c1)c1ccccc1Br
inactive: IC50 [15] > 32 µM

COc1ccc(NC(=O)CN2C(=O)/C(=C3\SC(=S)N(CCC(=O)O)C3=O)c3ccccc32)cc1
inactive: IC50 [18] > 50 µM
active: IC50 [16] 6.84 µM | IC50 [17] 14.5 µM | IC50 [19] 6.11 µM | IC50 [20] 13.8 µM | IC50 [21] 40.9 µM

Cc1ccc2ccccc2c1NC(=O)c1ccc(-c2cc(Cl)ccc2Cl)o1
inactive: IC50 [22] > 25 µM | IC50 [23] > 25 µM | IC50 [24] > 25 µM | IC50 [25] > 25 µM

Cc1cc(C)nc(NS(=O)(=O)c2ccc(NC(=O)c3cc(-c4ccccc4)nc4ccccc34)cc2)n1
active: IC50 [29] 4.92 µM
inactive: EC50 [26] > 32 µM | EC50 [27] > 32 µM | IC50 [28] > 32 µM | IC50 [30] 13.7 µM | IC50 [31] > 32 µM | EC50 [32] > 32 µM

From ChEMBL document CHEMBL1201862, “PubChem BioAssay data set” (2004)
